According to patent US9101566B2, “Fermentation product of cereal plant-derived material and immunomodulator” (KIRIN HOLDINGS KABUSHIKI KAISHA, priority 2009, dated 2015):

Tests used:
Format in all cases: cell-based
[1] = system: DCs induced from C57BL/6 mouse bone marrow cells with GM-CSF; assay: Comparison with known regulatory DC-inducing agents, DC induction system using GM-CSF (Example 3); settings: 50 μg/mL
Description: (§1) The hexane fraction (No. 8) (in Table 1) prepared in Example 1 from wheat bran fermented with koji was used for the test. Since GM-CSF is used as a DC-inducing agent in the above-mentioned reports concerning rapamycin and IL-10/TGF-β, DCs were induced in each system of GM-CSF and Flt-3L and then each regulatory DC-inducing agent was evaluated.
In a manner similar to the experimental method in […], bone marrow cells were prepared from C57BL/6 mouse thigh bone, the cells were suspended at a concentration of 2×10^5 cells/mL in a medium, and then 20 ng/ml GM-CSF (R&D systems) was added. The concentration and timing of the added test substance were similar to those in the above examples.
Regarding an evaluation method, expression intensities of the cell-surface DC activation markers CD40, CD86 and MHCII and the suppression marker PD1L were evaluated by analysis using a flow cytometer. In the case of the DC induction using GM-CSF, only mDC was generated. As in the case of Flt-3L, a gate was set on mDCs defined by CD11c^+CD11b^+B220^− and then analysis was conducted.

[2] = system: DCs induced from C57BL/6 mouse bone marrow cells with Flt-3L; assay: Comparison with known regulatory DC-inducing agents, DC induction system using Flt-3L (Example 3); settings: Flt-3L system, extract and γ-oryzanol 50 μg/mL, LPS 1 ng/mL
Description: as §1
In a manner similar to the experimental method in Example 2, bone marrow cells were prepared from C57BL/6 mouse thigh bone, the cells were suspended at 1×10^6 cells/mL in a medium, and then Flt-3L was added at 100 ng/mL. An extract from wheat bran fermented with koji, γ-oryzanol (Wako Pure Chemical Industries, Japan), or IL-10/TGF-β (produced by R&D systems and Peprotech, respectively) were added at 50 μg/mL for the former two or at 20 ng/mL for the latter two on day 0 after the initiation of culture. Rapamycin (Wako Pure Chemical Industries, Japan) was added at 10 ng/mL on day 3 after the initiation of culture. Culture was performed for 7 days and, at the time point of the last 24 hours of culture, LPS was added in a final concentration of 1 ng/mL.
Regarding an evaluation method, expression intensities of the cell-surface DC activation markers CD40, CD86 and MHCII and the suppression marker PD1L were evaluated by analysis using a flow cytometer. A gate was set on mDCs similarly to Example 1 and then analysis was conducted. Staining was performed using anti-CD11c-APC, anti-CD11b-APC-Cy7, anti-B220-PerCP, anti-CD40-FITC and anti-CD86-PE, or anti-CD11c-APC, anti-CD11b-APC-Cy7, anti-B220-PerCP, anti-MHCII-FITC, and anti-PD1L-PE (all available from Becton, Dickinson and Company) and then analysis was conducted.

[3] = system: dendritic cells induced from C57BL/6 mouse bone marrow cells with Flt-3L (mDCs, CD11c+CD11b+); assay: Regulatory DC-inducing activity of 14-dehydroergosterol (Example 9)
Description: Regulatory DC induction activity was evaluated for 14-dehydroergosterol (14-DHE) isolated and purified from wheat bran fermented with koji as described above and subjected to structural determination. As controls, ergosterol (Wako Pure Chemical Industries, Japan) and 9(11)-dehydroergosterol (9(11)-DHE) (Sigma-Aldrich Corp.), which are ergosterol-related substances, were used. Also, as conjugated linoleic acid (CLA) that was reported in connection with the inhibition of DC activation in the past, CLA (9Z, 11E) and CLA (10E, 12Z) (both, Cayman Chemical), and linoleic acid (Wako Pure Chemical Industries, Japan) were also subjected to activity determination (J. Immunol., 175(8): 4990-8, Oct. 15, 2005). As negative controls, a sample (none) to which no compound had been administered and a sample (ctrl) to which only LPS had been administered were also subjected to activity determination.
In a manner similar to Example 2, bone marrow cells were prepared from C57BL/6 mouse thigh bone, and then dendritic cells were induced using Flt-3L. Each test substance was added simultaneously with the initiation of culture at a concentration of 1 μM, 5 μM, or 10 μM. Seven days later, LPS (from Salmonella typhosa) (Sigma-Aldrich Corp.) was added at 5 ng/mL and then 24 hours later the cells were recovered. Subsequently, the cells were stained for the following cell markers and then subjected to flow cytometry analysis. All antibodies used were produced by Becton, Dickinson and Company. CD11c^+CD11b^+ was set as a gate for mDCs and then the expression levels of CD40, CD80, CD86, I-A/I-E, and ICOS-L were measured. Also, IL-12p40 and IL-10 in culture supernatants were measured by ELISA.

[4] = system: human DCs from peripheral blood CD14-positive cells; assay: Human regulatory DC-inducing activity of 14-DHE (Example 16); settings: 14-DHE 1, 3 or 10 μM; ergosterol 10 μM; LPS/IFN-γ or cytokine cocktail 24 h
Description: Mononuclear cells were prepared from human peripheral blood by density-gradient centrifugation using Ficoll-Paque (GE Healthcare, Japan). These cells were subjected to positive selection using anti-human CD14 MACS beads (Miltenyi Biotec), so that CD14-positive cells were obtained. CD14-positive cells were cultured in RPMI1640 media (containing 10% FBS (Invitrogen), 50 μmol/L 2-mercaptoethanol (Wako Pure Chemical Industries, Japan), 50 U/mL penicillin, and 50 μg/mL streptomycin (Gibco) (Sigma Aldrich)) supplemented with recombinant human GM-CSF (800 U/mL, Leukine, Berlex) and recombinant human IL-4 (100 ng/mL, Peprotech). During culture, medium exchange was performed once every 2 days. On day 7 of culture, 14-DHE was added at a concentration of 1 μM, 3 μM, or 10 μM. To a control, 10 μM ergosterol, which was a related substance, was added. Also, to a negative control, 1% ethanol, which was a solvent for 14-DHE, was added. The cells were recovered on day 8 of culture, counted, and then suspended at a density of 3×10^5 cells/mL in the above media. To cell suspensions, 1 μg/mL LPS and 100 ng/mL IFN-γ (both, Sigma Aldrich), or cytokine cocktail (1 μg/mL PGE2 (Sigma Aldrich), 10 ng/mL TNF-α, 2 μg/mL IL-6, and 10 ng/mL IL-1β (3 (all, BD Bioscience)) were added, followed by 24-hour culture. After culture, the cells were stained for CD86, HLA-DR, and CD80. Antibodies used were all produced by BD Bioscience. The gate of DCs was set by FSC and SSC, and the expression levels of these cell surface markers were analyzed.

Compound: γ-oryzanol
- expression of DC activation markers in response to LPS stimulation [1]: strong increases were observed
- MHCII expression in response to LPS stimulation [2]: no fluctuation was observed
- CD40 expression in response to LPS stimulation ([2]; rapamycin 10 ng/mL from day 3): no fluctuation was observed
- CD86 expression in response to LPS stimulation ([2]; rapamycin 10 ng/mL from day 3): no fluctuation was observed

Compound: CC(C)[C@@H](C)C=C[C@@H](C)[C@H]1CC[C@H]2C3=CC=C4C[C@@H](O)CC[C@]4(C)C3=CC[C@]12C [9(11)-DHE, 9(11)-dehydroergosterol, reference compound]
- expression of inflammatory cytokine IL-12p40 (ELISA) ([3]; 1, 5 or 10 μM, LPS 5 ng/mL, culture supernatant): a slight decrease was observed
- expression levels of I-A/I-E, CD40, CD80 and CD86 ([3]; maximum concentration (10 μM), LPS 5 ng/mL 24 h): slight decrease

Compound: CC(C)[C@@H](C)/C=C/[C@@H](C)[C@H]1CC[C@H]2C3=CC=C4C[C@@H](O)CC[C@]4(C)[C@H]3CC[C@]12C [Ergosterol, ergosterol, reference compound]
- expression level of CD80 on human DCs [4]: did not affect
- expression level of CD86 on human DCs [4]: did not affect
- expression level of MHC class II molecule HLA-DR on human DCs [4]: did not affect
